In one assay the target is T1, Bromodomain BRD3 (1-435) (Homo sapiens, UniProt Q15059).
T1 construct: Recombinant Human Bromodomains (BRD2 (1-473), BRD3 (1-435) and BRD4 (1-477)); made in house; host or cells: E. coli (pET15b vector)
In words: Time Resolved Fluorescence Resonance Energy Transfer (TR-FRET) binding assay, BRD3. To be noted: BRD3 100 nM, acetylated histone peptide 300 nM. How it is done: (§1) The binding of the compounds of formula (I) to Bromodomains BRD2, BRD3 and BRD4 was assessed using a time resolved fluorescent resonance energy transfer binding assay, that measures the binding of an acetylated histone peptide to the bromodomain protein.
(§2) The bromodomain protein, histone peptide and a variable concentration of test compound are incubated together to reach thermodynamic equilibrium.
(§3) • H-Ser-Gly-Arg-Gly-Lys(Ac)-Gly-Gly-Lys(Ac)-Gly-Leu-Gly-Lys(Ac)-Gly-Gly-Ala-Lys(Ac)-Arg-His-Gly-Ser-Gly-Ser-Lys(Biotin)-OH. 3TFA
(§4) Protein Production: Recombinant Human Bromodomains (BRD2 (1-473), BRD3 (1-435) and BRD4 (1-477)) were expressed in E. coli cells (in pET15b vector) with a six-His tag at the N-terminal. The His-tagged Bromodomain was extracted from E. coli cells using sonication and purified using a nickel sepharose 6FF column, the proteins were washed and then eluted with 50 mM Tris-Hcl pH8.0. 300 mM NaCl, 1 mM […] and 20 mM Imidazole. Further purification was performed by affinity chromatography on a HisTRAP HP column, eluting with a linear 0-500 mM sodium chloride gradient, over 20 column volumes. Final purification was completed by Superdex 200 prep grade size exclusion column. Purified protein was stored at −80 C in 20 mM HEPES pH 7.5 and 100 mM NaCl. Protein identity was confirmed by peptide mass fingerprinting and predicted molecular weight confirmed by mass spectrometry.
(§5) Protocol for Bromodomain BRD2, 3 and 4 Assays: All assay components were dissolved in buffer composition of 50 mM HEPES pH7.4, 50 mM NaCl and 0.5 mM CHAPS. The final concentration of bromodomain proteins were 100 nM and the histone peptide was 300 nM, these components are premixed and allowed to equilibrate for 1 hour in the dark. 8 μl of this reaction mixture was added to all wells containing 50 nl of various concentrations of test compound or DMSO vehicle (0.5% final) in Greiner 384 well black low volume microtitre plates and incubated in dark for 60 mins at room temperature. 2 μl of detection mixture containing anti-6his XL665 labeled antibody and streptavidin labeled with europium cryptate was added to all wells and a further dark incubation of at least 30 mins was performed. Plates were then read on the Envision platereader, (λex=317 nm, donor λEM=615 nm; acceptor λEM=665 nm; Dichroic LANCE dual). Time resolved fluorescent intensity measurements were made at both emission wavelengths and the ratio of acceptor/donor was calculated and used for data analysis. All data was normalized to the mean of 16 high and 16 low control wells on each plate. A four parameter curve fit of the following form was then applied: y=a+((b−a)/(1+(10^x/10^c)^d)
(§6) Where ‘a’ is the minimum, ‘b’ is the Hill slope, ‘c’ is the pIC50 and ‘d’ is the maximum.

The target in a further assay is T2, Bromodomain BRD4 (1-477) (Homo sapiens, UniProt O60885).
T2 construct: Recombinant Human Bromodomains (BRD2 (1-473), BRD3 (1-435) and BRD4 (1-477)); made in house; host or cells: E. coli (pET15b vector)
In words: Time Resolved Fluorescence Resonance Energy Transfer (TR-FRET) binding assay, BRD4. To be noted: BRD4 100 nM, acetylated histone peptide 300 nM. How it is done:
as §1, §2, §3, §4, §5, §6
In general terms: In TR-FRET formats the signal depends on donor and acceptor labels being close together.

For a further assay, the target named is T3, Bromodomain BRD2 (1-473) (Homo sapiens, UniProt P25440).
T3 construct: Recombinant Human Bromodomains (BRD2 (1-473), BRD3 (1-435) and BRD4 (1-477)); made in house; host or cells: E. coli (pET15b vector)
In words: Time Resolved Fluorescence Resonance Energy Transfer (TR-FRET) binding assay, BRD2. To be noted: BRD2 100 nM, acetylated histone peptide 300 nM. As for the experimental part: as §1, §2, §3, §4, §5, §6

In assay [1] the test system is LPS induced IL-6 secretion from whole blood. The assay can be described thus: Measurement of LPS induced IL-6 secretion from whole blood. The conditions noted are these: LPS 200 ng/ml, 24 hours, IL-6 by immunoassay. It is filed as cell-based. As for the experimental part:
Activation of monocytic cells by agonists of toll-like receptors such as bacterial lipopolysaccharide (LPS) results in production of key inflammatory mediators including IL-6. Such pathways are widely considered to be central to the pathophysiology of a range of auto-immune and inflammatory disorders.
Compounds to be tested are diluted to give a range of appropriate concentrations of which 1 μl of the diluted stocks is added to a 96 well plate. Following addition of whole blood (130 μl) the plates are incubated at 37 degrees (5% CO2) for 30 min before the addition of 10 μl of 2.8 ug/ml LPS, diluted in complete RPMI 1640 (final concentration=200 ng/ml), to give a total volume of 140 ul per well. After further incubation for 24 hours at 37 degrees, 140 μl of PBS are added to each well. The plates are sealed, shaken for 10 minutes and then centrifuged (2500 rpm×10 min). 100 μl of the supernatant are removed and IL-6 levels assayed by immunoassay (typically by MesoScale Discovery technology) either immediately or following storage at −20 degrees. Concentration response curves for each compound was generated from the data and an IC50 value was calculated.

The values that follow come from patent US9029395B2, “Tetrahydroquinoline derivatives useful as bromodomain inhibitors” (GlaxoSmithKline LLC, priority 2011, dated 2015).

Molecules are shown by their SMILES. Counter-ions that a name gives are not always drawn.

T1 sequence (Q15059 1-435): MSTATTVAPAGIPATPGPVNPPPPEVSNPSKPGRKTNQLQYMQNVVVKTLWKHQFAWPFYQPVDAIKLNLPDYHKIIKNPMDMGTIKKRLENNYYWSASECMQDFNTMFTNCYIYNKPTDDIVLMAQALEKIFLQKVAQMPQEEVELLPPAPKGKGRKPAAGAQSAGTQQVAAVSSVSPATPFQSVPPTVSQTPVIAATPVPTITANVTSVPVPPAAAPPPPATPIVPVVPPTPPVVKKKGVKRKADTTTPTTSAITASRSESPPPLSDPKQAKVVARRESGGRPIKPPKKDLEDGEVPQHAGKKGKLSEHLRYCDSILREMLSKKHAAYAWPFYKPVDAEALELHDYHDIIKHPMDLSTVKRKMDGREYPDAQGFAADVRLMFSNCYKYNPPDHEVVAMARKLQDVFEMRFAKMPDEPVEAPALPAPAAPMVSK
T3 sequence (P25440 1-473): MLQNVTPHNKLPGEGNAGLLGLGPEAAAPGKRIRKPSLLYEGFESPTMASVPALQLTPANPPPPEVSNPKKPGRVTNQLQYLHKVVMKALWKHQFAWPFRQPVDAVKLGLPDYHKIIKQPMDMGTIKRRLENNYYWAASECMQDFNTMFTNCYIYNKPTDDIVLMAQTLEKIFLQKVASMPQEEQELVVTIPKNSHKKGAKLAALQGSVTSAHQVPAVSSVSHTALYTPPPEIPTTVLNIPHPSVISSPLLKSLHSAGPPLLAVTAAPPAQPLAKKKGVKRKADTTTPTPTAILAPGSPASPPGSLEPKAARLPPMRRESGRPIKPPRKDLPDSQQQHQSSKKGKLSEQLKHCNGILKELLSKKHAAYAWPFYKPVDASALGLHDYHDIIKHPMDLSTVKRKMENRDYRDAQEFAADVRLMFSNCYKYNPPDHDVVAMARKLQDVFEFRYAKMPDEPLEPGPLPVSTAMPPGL

As usually defined, the IC50 is the concentration at which inhibition is half-maximal. Higher therefore signals weaker potency in that assay. Consider `CC(=O)N1c2ccc(-c3ccc(C(=O)OCC[N+](C)(C)C)cc3)cc2[C@H](Nc2ccc(Cl)cc2)C[C@@H]1C` [Example 2, 2-((4-((2S,4R)-1-Acetyl-4-((4-chlorophenyl)amino)-2-methyl-1,2,3,4-tetrahydroquinolin-6-yl)benzoyl)oxy)-N,N,N-trimethylethanaminium, formate], for which the IC50 is 63.1 to 501 nM on Bromodomain BRD3 (1-435), 63.1 to 501 nM at Bromodomain BRD4 (1-477), 63.1 to 501 nM on Bromodomain BRD2 (1-473) and 200 to 3160 nM in assay [1].
In the case of `CC(=O)N1c2ccc(-c3ccc(C(=O)OCCN(C)C)cc3)cc2[C@H](Nc2ccc(Cl)cc2)C[C@@H]1C` [Example 1, 2-(Dimethylamino)ethyl 4-((2S,4R)-1-acetyl-4-((4-chlorophenyl)amino)-2-methyl-1,2,3,4-tetrahydroquinolin-6-yl)benzoate hydrochloride], the IC50 was 63.1 to 501 nM at Bromodomain BRD3 (1-435), 63.1 to 501 nM on Bromodomain BRD4 (1-477), 63.1 to 501 nM on Bromodomain BRD2 (1-473) and 200 to 3160 nM in assay [1].
In the case of `CC(=O)N1c2ccc(-c3ccc(C(=O)OCCCN(C)C)cn3)cc2[C@H](Nc2ccc(C#N)cn2)C[C@@H]1C` [Example 5, 3-(Dimethylamino)propyl 6-((2S,4R)-1-acetyl-4-((5-cyanopyridin-2-yl)amino)-2-methyl-1,2,3,4-tetrahydroquinolin-6-yl)nicotinate], the IC50 at Bromodomain BRD3 (1-435) is 63.1 to 501 nM; at Bromodomain BRD4 (1-477), 63.1 to 501 nM; at Bromodomain BRD2 (1-473), 63.1 to 501 nM; in assay [1], 200 to 3160 nM.
In the case of `CC(=O)N1c2ccc(-c3ccc(C(=O)OCCC[N+](C)(C)C)cc3)cc2[C@H](Nc2ccc(Cl)cc2)C[C@@H]1C` [Example 3, 3-((4-((2S,4R)-1-Acetyl-4-((4-chlorophenyl)amino)-2-methyl-1,2,3,4-tetrahydroquinolin-6-yl)benzoyl)oxy)-N,N,N-trimethylpropan-1-aminium, formate], the IC50 on Bromodomain BRD3 (1-435) was 63.1 to 501 nM; on Bromodomain BRD4 (1-477), 63.1 to 501 nM; at Bromodomain BRD2 (1-473) it was 63.1 to 501 nM; in assay [1], 200 to 3160 nM.
On to `CC(=O)N1c2ccc(-c3ccc(C(=O)OCCCN(C)C)cc3)cc2[C@H](NC(=O)OC(C)C)C[C@@H]1C` [Example 7, 3-(Dimethylamino)propyl 4-((2S,4R)-1-acetyl-4-((isopropoxycarbonyl)amino)-2-methyl-1,2,3,4-tetrahydroquinolin-6-yl)benzoate], for which the IC50 is 63.1 to 501 nM on Bromodomain BRD3 (1-435), 63.1 to 501 nM at Bromodomain BRD4 (1-477), 63.1 to 501 nM at Bromodomain BRD2 (1-473) and 200 to 3160 nM in assay [1].
With `CC(=O)N1c2ccc(-c3ccc(C(=O)OCCN(C)C)cn3)cc2[C@H](Nc2ccc(C#N)cn2)C[C@@H]1C` [Example 6, 2-(Dimethylamino)ethyl 6-((2S,4R)-1-acetyl-4-((5-cyanopyridin-2-yl)amino)-2-methyl-1,2,3,4-tetrahydroquinolin-6-yl)nicotinate], the IC50 was 63.1 to 501 nM at Bromodomain BRD3 (1-435), 63.1 to 501 nM at Bromodomain BRD4 (1-477), 63.1 to 501 nM at Bromodomain BRD2 (1-473) and 200 to 3160 nM in assay [1].
On to `CC(=O)N1c2ccc(-c3ccc(C(=O)OCCCN(C)C)cc3)cc2[C@H](Nc2ccc(Cl)cc2)C[C@@H]1C` [Example 4, 3-(Dimethylamino)propyl 4-((2S,4R)-1-acetyl-4-((4-chlorophenyl)amino)-2-methyl-1,2,3,4-tetrahydroquinolin-6-yl)benzoate], for which the IC50 at Bromodomain BRD3 (1-435), on Bromodomain BRD4 (1-477) and at Bromodomain BRD2 (1-473) was 63.1 to 501 nM in each case.
As to `CC(=O)N1c2ccc(-c3ccc(C(=O)OCCN(C)C)cc3)cc2[C@H](NC(=O)OC(C)C)C[C@@H]1C` [Example 8, 2-(Dimethylamino)ethyl 4-((2S,4R)-1-acetyl-4-((isopropoxycarbonyl)amino)-2-methyl-1,2,3,4-tetrahydroquinolin-6-yl)benzoate], the IC50 is 63.1 to 501 nM on Bromodomain BRD3 (1-435), 63.1 to 501 nM on Bromodomain BRD4 (1-477), 63.1 to 501 nM at Bromodomain BRD2 (1-473) and 200 to 3160 nM in assay [1].
